Laboratory results published in PMC4729137, “Functional analysis of androgen receptor mutations that confer anti-androgen resistance identified in circulating cell-free DNA from prostate cancer patients” (Genome Biology, 2016).
Substitutions are numbered along the chain they refer to.

Legend:
[1] = molecular target: T1, H875Q-AR (Homo sapiens, UniProt P10275, H875Q); assay: cell-based
T1 sequence (P10275 1-920 H875Q): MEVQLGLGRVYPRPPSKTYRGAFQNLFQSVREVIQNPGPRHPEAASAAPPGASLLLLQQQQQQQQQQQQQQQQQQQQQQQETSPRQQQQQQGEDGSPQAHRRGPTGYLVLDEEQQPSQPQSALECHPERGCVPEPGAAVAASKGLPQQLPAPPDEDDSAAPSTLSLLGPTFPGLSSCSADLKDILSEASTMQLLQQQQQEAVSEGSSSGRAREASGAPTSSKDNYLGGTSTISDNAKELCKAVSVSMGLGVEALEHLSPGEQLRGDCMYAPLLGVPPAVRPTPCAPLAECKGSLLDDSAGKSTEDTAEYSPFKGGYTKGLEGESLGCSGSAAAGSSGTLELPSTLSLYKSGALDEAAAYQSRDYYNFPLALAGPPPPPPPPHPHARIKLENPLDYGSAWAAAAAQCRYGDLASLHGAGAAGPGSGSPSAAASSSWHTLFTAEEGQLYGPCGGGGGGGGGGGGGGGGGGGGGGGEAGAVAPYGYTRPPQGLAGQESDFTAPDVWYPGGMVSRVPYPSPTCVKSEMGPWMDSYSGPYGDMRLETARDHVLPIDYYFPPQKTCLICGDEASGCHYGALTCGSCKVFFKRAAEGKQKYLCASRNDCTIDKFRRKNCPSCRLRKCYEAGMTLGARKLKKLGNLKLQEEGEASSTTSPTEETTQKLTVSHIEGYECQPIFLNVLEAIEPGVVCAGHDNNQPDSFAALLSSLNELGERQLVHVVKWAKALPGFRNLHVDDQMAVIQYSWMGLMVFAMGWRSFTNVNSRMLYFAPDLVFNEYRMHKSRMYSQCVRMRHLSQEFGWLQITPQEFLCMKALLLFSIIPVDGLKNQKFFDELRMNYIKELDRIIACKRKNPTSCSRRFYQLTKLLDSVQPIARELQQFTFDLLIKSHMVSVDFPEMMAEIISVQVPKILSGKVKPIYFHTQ

[2] = molecular target: T2, E894K-AR (Homo sapiens, UniProt P10275, E894K); assay type: cell-based; conditions: AR mutant E894K; transfected PC3 cells; 0.1 nM R1881; drug 0 to 50 μM
T2 sequence (P10275 1-920 E894K): T1 sequence (P10275 1-920 H875Q) with Q875H, E894K

| Structure (SMILES) | EC50 [1] [nM] | Agonist response to treatment [2] |
| --- | --- | --- |
| C[C@]12CCC(=O)C=C1CC[C@@H]1[C@@H]2[C@@H](O)C[C@@]2(C)[C@H]1CC[C@]2(O)C(=O)CO [hydrocortisone] | > 500 |  |
| CC(C)(O)C(=O)Nc1ccc([N+](=O)[O-])c(C(F)(F)F)c1 [Hydroxyflutamide, hydroxyflutamide] |  | Partial |
